Each block holds one molecule with its values, some of them ahead of it.
Tests used:
Assay in all cases: Caliper, Mobility shift assay off-chip
[1] = target: PRKCZ (human) (UniProt Q05513)
[2] = target: PDK4 (human) (UniProt Q16654)
[3] = target: DCLK2 (human) (UniProt Q8N568)
[4] = target: IKBKB (human) (UniProt O14920)
[5] = target: PRKAA1 (human) (UniProt Q13131)
[6] = target: PGK1 (human) (UniProt P00558)
[7] = target: CDK6 (human) (UniProt Q00534)
[8] = target: RPS6KB1 (human) (UniProt P23443)
[9] = target: NEK7 (human) (UniProt Q8TDX7)
[10] = target: AKT3 (human) (UniProt Q9Y243)
[11] = target: MET (human) (UniProt P08581)
[12] = target: RPS6KB2 (human) (UniProt Q9UBS0)
RPS6KB2 (human), sequence (Q9UBS0 whole entry, looked up): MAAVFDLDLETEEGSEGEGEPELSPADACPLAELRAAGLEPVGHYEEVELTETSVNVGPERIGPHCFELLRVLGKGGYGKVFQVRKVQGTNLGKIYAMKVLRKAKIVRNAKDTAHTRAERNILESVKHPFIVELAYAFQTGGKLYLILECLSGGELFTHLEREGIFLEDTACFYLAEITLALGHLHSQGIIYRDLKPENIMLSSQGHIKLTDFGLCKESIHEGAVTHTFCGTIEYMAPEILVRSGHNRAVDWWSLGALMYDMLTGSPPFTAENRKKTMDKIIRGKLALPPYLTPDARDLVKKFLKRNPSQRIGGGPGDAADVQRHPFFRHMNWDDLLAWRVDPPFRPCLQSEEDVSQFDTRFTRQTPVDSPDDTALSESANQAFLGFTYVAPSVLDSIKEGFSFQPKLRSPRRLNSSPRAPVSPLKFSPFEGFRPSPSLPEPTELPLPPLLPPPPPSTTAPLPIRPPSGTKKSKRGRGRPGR

[13] = target: DYRK3 (human) (UniProt O43781)
[14] = target: PHKG1 (human) (UniProt Q16816)
[15] = target: AURKA (human) (UniProt O14965)
[16] = target: PRKCA (human) (UniProt P17252)
[17] = target: RPS6KA5 KD1 KD2 (human) (UniProt O75582)
[18] = target: NEK6 (human) (UniProt Q9HC98)
[19] = target: SGK2 (human) (UniProt Q9HBY8)
[20] = target: MAPK8 (human) (UniProt P45983)
MAPK8 (human), sequence (P45983 whole entry, looked up): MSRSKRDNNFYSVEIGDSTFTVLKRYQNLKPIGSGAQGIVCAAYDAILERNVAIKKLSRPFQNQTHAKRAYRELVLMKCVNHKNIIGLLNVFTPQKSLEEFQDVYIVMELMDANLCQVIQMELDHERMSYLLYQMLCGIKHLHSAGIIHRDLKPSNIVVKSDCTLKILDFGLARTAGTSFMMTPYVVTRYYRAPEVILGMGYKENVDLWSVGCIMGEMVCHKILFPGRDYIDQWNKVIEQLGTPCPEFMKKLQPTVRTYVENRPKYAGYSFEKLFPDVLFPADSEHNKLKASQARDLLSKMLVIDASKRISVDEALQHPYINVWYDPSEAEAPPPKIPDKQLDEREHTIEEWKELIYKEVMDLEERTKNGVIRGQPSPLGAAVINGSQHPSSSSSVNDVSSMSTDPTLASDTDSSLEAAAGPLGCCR

[21] = target: DYRK1A (human) (UniProt Q13627)
[22] = target: AURKC (human) (UniProt Q9UQB9)
[23] = target: FRK (human) (UniProt P42685)
[24] = target: EPHA3 (human) (UniProt P29320)
EPHA3 (human), sequence (P29320 whole entry, looked up): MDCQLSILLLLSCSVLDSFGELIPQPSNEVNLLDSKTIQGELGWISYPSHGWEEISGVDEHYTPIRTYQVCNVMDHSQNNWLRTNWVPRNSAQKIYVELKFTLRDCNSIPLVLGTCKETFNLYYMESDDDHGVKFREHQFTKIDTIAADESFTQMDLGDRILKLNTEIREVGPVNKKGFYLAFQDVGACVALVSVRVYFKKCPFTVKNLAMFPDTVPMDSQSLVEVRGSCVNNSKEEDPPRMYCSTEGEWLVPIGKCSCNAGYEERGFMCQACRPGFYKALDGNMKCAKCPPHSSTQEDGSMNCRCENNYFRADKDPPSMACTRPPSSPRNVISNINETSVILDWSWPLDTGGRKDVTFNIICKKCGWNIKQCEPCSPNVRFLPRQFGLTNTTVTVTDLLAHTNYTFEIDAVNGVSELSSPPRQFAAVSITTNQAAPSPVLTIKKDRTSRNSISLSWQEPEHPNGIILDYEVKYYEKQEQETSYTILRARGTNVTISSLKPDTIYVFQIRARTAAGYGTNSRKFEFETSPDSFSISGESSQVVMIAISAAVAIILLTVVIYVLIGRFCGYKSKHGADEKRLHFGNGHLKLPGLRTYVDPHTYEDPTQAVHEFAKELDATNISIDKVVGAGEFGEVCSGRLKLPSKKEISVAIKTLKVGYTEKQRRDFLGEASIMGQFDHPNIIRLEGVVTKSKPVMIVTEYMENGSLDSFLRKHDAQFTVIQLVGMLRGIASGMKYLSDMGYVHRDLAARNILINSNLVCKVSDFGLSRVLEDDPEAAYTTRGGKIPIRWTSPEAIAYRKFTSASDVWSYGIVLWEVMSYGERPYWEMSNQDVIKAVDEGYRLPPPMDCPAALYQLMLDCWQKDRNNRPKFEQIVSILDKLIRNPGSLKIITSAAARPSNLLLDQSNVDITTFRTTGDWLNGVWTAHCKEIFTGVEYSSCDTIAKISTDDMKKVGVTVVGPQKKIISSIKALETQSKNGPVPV

[25] = target: RPS6KA1 KD1 KD2 (human) (UniProt Q15418)
RPS6KA1 KD1 KD2 (human), sequence (Q15418 whole entry, looked up): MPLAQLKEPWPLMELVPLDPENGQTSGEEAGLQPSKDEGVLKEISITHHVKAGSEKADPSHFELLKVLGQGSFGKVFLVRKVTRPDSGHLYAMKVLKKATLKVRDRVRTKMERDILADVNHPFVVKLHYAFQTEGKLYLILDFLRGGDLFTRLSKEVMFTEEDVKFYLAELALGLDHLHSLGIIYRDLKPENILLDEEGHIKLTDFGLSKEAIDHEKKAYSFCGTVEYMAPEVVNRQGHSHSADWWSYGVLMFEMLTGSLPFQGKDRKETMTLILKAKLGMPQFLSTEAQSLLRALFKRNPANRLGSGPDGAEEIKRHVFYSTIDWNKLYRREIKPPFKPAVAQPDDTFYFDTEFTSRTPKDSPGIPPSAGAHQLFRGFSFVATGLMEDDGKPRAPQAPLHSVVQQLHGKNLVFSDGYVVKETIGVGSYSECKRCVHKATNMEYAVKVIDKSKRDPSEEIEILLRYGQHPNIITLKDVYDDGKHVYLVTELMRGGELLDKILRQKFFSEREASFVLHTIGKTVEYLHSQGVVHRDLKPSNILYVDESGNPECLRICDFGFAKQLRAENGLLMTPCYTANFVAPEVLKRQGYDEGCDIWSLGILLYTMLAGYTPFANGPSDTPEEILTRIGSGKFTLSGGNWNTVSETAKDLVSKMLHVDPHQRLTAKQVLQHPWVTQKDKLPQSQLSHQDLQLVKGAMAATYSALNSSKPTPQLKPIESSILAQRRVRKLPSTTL

[26] = target: ROCK2 (human) (UniProt O75116)
[27] = target: EPHB3 (human) (UniProt P54753)
EPHB3 (human), sequence (P54753 whole entry, looked up): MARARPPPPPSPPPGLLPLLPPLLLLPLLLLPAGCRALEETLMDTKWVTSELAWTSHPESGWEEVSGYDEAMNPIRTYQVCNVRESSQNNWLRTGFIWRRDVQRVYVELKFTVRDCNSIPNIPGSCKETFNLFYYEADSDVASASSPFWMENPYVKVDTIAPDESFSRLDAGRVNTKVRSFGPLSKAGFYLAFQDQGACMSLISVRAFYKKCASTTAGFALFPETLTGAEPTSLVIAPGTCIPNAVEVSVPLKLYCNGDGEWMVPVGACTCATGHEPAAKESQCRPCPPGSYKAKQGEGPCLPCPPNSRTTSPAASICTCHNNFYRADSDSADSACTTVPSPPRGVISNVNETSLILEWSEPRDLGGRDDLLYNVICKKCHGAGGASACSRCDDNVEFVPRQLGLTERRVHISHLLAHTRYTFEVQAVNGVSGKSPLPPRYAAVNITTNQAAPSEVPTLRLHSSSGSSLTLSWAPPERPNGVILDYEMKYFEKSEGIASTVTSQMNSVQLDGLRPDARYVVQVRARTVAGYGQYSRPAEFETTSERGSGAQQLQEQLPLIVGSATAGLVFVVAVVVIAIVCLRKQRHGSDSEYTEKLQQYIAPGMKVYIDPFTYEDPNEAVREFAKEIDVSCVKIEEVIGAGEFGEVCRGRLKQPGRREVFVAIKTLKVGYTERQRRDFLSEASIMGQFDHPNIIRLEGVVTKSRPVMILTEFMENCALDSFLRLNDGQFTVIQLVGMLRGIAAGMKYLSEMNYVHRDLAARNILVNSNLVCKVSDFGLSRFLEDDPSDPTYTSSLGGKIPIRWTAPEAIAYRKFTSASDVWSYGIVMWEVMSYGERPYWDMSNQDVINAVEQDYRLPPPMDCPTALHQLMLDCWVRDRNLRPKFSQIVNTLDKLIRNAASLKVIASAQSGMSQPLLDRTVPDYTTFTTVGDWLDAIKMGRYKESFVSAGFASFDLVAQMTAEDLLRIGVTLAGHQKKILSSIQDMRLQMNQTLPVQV

[28] = target: PLK3 (human) (UniProt Q9H4B4)
[29] = target: NEK4 (human) (UniProt P51957)
NEK4 (human), sequence (P51957 whole entry, looked up): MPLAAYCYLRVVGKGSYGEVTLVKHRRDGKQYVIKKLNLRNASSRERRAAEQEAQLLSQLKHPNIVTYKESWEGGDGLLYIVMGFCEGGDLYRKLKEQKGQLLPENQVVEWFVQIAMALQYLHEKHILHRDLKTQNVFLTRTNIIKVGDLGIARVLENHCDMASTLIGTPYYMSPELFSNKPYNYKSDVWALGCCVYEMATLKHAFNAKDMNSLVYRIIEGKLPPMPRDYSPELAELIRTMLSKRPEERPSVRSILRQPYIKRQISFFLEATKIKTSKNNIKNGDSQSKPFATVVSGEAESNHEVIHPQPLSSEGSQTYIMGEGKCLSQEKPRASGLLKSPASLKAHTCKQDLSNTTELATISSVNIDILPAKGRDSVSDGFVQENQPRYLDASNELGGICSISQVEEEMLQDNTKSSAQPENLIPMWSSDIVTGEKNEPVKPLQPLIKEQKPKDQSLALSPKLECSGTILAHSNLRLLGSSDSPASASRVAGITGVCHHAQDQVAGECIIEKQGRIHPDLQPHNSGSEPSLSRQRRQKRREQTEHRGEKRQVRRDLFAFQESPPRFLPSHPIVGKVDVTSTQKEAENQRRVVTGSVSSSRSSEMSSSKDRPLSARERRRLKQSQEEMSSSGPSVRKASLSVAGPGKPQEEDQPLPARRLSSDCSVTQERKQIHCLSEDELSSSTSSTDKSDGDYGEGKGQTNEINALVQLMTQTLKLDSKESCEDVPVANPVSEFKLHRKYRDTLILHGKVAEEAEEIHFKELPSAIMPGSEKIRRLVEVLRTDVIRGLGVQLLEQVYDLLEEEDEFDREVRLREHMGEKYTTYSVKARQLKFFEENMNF

[30] = target: ABL2 (human) (UniProt P42684)
[31] = target: IRAK1 (human) (UniProt P51617)
[32] = target: CSNK2A2 (human) (UniProt P19784)
[33] = target: RPS6KA2 KD1 KD2 (human) (UniProt Q15349)

PGK1 (human), sequence (P00558 whole entry, looked up): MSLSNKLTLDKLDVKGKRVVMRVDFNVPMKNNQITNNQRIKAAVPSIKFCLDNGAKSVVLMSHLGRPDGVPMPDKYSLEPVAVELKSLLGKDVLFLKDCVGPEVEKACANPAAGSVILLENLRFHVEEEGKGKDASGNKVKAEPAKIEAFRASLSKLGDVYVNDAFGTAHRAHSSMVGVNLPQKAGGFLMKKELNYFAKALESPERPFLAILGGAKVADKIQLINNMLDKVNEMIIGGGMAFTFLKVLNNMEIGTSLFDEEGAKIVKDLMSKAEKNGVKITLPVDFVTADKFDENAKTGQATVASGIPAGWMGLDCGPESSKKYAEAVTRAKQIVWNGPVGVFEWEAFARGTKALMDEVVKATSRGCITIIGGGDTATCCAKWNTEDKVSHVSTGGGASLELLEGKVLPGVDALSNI

inhibition ([1]; compound 0.001 µM): 12%
inhibition ([1]; compound 0.02 µM): -4.6%
inhibition ([2]; compound 0.001 µM): 0.1%
inhibition ([2]; compound 0.02 µM): -0.5%
inhibition ([3]; compound 0.001 µM): -2.7%
inhibition ([3]; compound 0.02 µM): -2.1%
inhibition ([4]; compound 0.001 µM): 5.5%
inhibition ([4]; compound 0.02 µM): 3.1%
inhibition ([5]; compound 0.001 µM): 7.1%
inhibition ([5]; compound 0.02 µM): 10.1%
inhibition ([6]; compound 0.001 µM): -3.7%
inhibition ([6]; compound 0.02 µM): -5.3%
inhibition ([7]; compound 0.001 µM): 3.5%
inhibition ([7]; compound 0.02 µM): 4.4%
inhibition ([8]; compound 0.001 µM): 6.6%
inhibition ([8]; compound 0.02 µM): 10.6%
inhibition ([9]; compound 0.001 µM): -3.9%
inhibition ([9]; compound 0.02 µM): -4.1%
inhibition ([10]; compound 0.001 µM): -5.4%
inhibition ([10]; compound 0.02 µM): -5.5%
inhibition ([11]; compound 0.001 µM): -2.4%
inhibition ([12]; compound 0.001 µM): 9.2%
inhibition ([12]; compound 0.02 µM): 1.8%
inhibition ([13]; compound 0.001 µM): -18.5%
inhibition ([13]; compound 0.02 µM): -6.4%
inhibition ([14]; compound 0.001 µM): -7%
inhibition ([14]; compound 0.02 µM): -4.4%
inhibition ([15]; compound 0.001 µM): 13.3%
inhibition ([15]; compound 0.02 µM): 54.5%
inhibition ([16]; compound 0.001 µM): 15.9%
inhibition ([16]; compound 0.02 µM): 0.7%
inhibition ([17]; compound 0.001 µM): -6.2%
inhibition ([17]; compound 0.02 µM): -7.1%
inhibition ([18]; compound 0.001 µM): -7.6%
inhibition ([18]; compound 0.02 µM): -5.8%
inhibition ([19]; compound 0.001 µM): -1.7%
inhibition ([19]; compound 0.02 µM): 4.4%
inhibition ([20]; compound 0.001 µM): -3.3%
inhibition ([20]; compound 0.02 µM): -3.5%
inhibition ([21]; compound 0.001 µM): 8%
inhibition ([21]; compound 0.02 µM): -5.5%
inhibition ([22]; compound 0.001 µM): -2.1%
inhibition ([22]; compound 0.02 µM): 42.3%
inhibition ([23]; compound 0.001 µM): 6.1%
inhibition ([23]; compound 0.02 µM): 4.2%
inhibition ([24]; compound 0.001 µM): -7.7%
inhibition ([24]; compound 0.02 µM): -4.2%
inhibition ([25]; compound 0.001 µM): -5.4%
inhibition ([25]; compound 0.02 µM): -2.8%
inhibition ([26]; compound 0.001 µM): 1.6%
inhibition ([26]; compound 0.02 µM): -4.7%
inhibition ([27]; compound 0.001 µM): -8%
inhibition ([27]; compound 0.02 µM): -4.7%
inhibition ([28]; compound 0.001 µM): 3.7%
inhibition ([28]; compound 0.02 µM): -1.3%
inhibition ([29]; compound 0.001 µM): -5.5%
inhibition ([29]; compound 0.02 µM): -4.4%
inhibition ([30]; compound 0.001 µM): 5.8%
inhibition ([30]; compound 0.02 µM): 58.4%
inhibition ([31]; compound 0.001 µM): -12.5%
inhibition ([31]; compound 0.02 µM): 4.3%
inhibition ([32]; compound 0.001 µM): -3.1%
inhibition ([32]; compound 0.02 µM): -5.6%
inhibition ([33]; compound 0.001 µM): -0.7%
inhibition ([33]; compound 0.02 µM): 6%
Structure (SMILES): CNC(=O)c1ccccc1Sc1ccc2c(/C=C/c3ccccn3)n[nH]c2c1

inhibition ([1]; compound 0.2 µM): -1.5%
inhibition ([1]; compound 4.0 µM): 13.5%
inhibition ([2]; compound 0.2 µM): 1.6%
inhibition ([2]; compound 4.0 µM): 22.6%
inhibition ([3]; compound 0.2 µM): 5.2%
inhibition ([3]; compound 4.0 µM): 49.8%
inhibition ([4]; compound 0.2 µM): -2.1%
inhibition ([4]; compound 4.0 µM): 4.2%
inhibition ([5]; compound 0.2 µM): 62.6%
inhibition ([5]; compound 4.0 µM): 98.7%
inhibition ([6]; compound 0.2 µM): 12.5%
inhibition ([6]; compound 4.0 µM): 74.1%
inhibition ([7]; compound 0.2 µM): 23.8%
inhibition ([7]; compound 4.0 µM): 89.2%
inhibition ([8]; compound 0.2 µM): 66.4%
inhibition ([8]; compound 4.0 µM): 96.6%
inhibition ([9]; compound 0.2 µM): -1.4%
inhibition ([9]; compound 4.0 µM): -5.6%
inhibition ([10]; compound 0.2 µM): 2.3%
inhibition ([10]; compound 4.0 µM): 44.8%
inhibition ([11]; compound 0.2 µM): 9%
inhibition ([11]; compound 4.0 µM): 65.3%
inhibition ([12]; compound 0.2 µM): 15.7%
inhibition ([12]; compound 4.0 µM): 50%
inhibition ([13]; compound 0.2 µM): 24.4%
inhibition ([13]; compound 4.0 µM): 81.9%
inhibition ([14]; compound 0.2 µM): 91.8%
inhibition ([14]; compound 4.0 µM): 96.9%
inhibition ([15]; compound 0.2 µM): 31.1%
inhibition ([15]; compound 4.0 µM): 87.3%
inhibition ([16]; compound 0.2 µM): 0.1%
inhibition ([16]; compound 4.0 µM): 28.7%
inhibition ([17]; compound 0.2 µM): 18.2%
inhibition ([17]; compound 4.0 µM): 73.3%
inhibition ([18]; compound 0.2 µM): -1.5%
inhibition ([18]; compound 4.0 µM): -6.8%
inhibition ([19]; compound 0.2 µM): 5.5%
inhibition ([19]; compound 4.0 µM): 57.6%
inhibition ([20]; compound 0.2 µM): -3.9%
inhibition ([20]; compound 4.0 µM): -16%
inhibition ([21]; compound 0.2 µM): 23%
inhibition ([21]; compound 4.0 µM): 82.1%
inhibition ([22]; compound 0.2 µM): 23.2%
inhibition ([22]; compound 4.0 µM): 87.1%
inhibition ([23]; compound 0.2 µM): 29.7%
inhibition ([24]; compound 0.2 µM): -0.2%
inhibition ([24]; compound 4.0 µM): 21.2%
inhibition ([25]; compound 0.2 µM): 53.9%
inhibition ([26]; compound 0.2 µM): 20%
inhibition ([26]; compound 4.0 µM): 76.7%
inhibition ([27]; compound 0.2 µM): -1.7%
inhibition ([27]; compound 4.0 µM): 15.3%
inhibition ([28]; compound 0.2 µM): 0.9%
inhibition ([28]; compound 4.0 µM): 0.1%
inhibition ([29]; compound 0.2 µM): -2.5%
inhibition ([29]; compound 4.0 µM): 8.9%
inhibition ([30]; compound 0.2 µM): 13.7%
inhibition ([30]; compound 4.0 µM): 66.6%
inhibition ([31]; compound 0.2 µM): 68.5%
inhibition ([31]; compound 4.0 µM): 84%
inhibition ([32]; compound 0.2 µM): 4.5%
inhibition ([32]; compound 4.0 µM): 41.2%
Structure (SMILES): CCN(CC)CCNC(=O)c1c(C)[nH]c(/C=C2\C(=O)Nc3ccc(F)cc32)c1C
